The subject of this assay is primary human bronchial cells. The assay is described as follows: Eicosanoid formation in calcium ionophore stimulated primary bronchial epithelial cells (LC/ESI-MSMS of AMPP amides). The following applies: +Ca ionophore (A23187, 10 uM, 20 min, 37° C.); 0.47 million cells per sample. The assay is classed as cell-based. As to the method:
The University of Washington Institutional Review Board approved the studies involving human subjects, and written informed consent was obtained from all participants. Primary bronchial epithelial cells were isolated from a volunteer with asthma during bronchoscopy using a nylon cytology brush of cells from subsegmental airways. To establish primary culture, the epithelial cells were seeded into a culture vessel coated with type 1 collagen in bronchial epithelial basal media (BEBM, Lonza, Allendale, N.J.) supplemented with bovine pituitary extract, insulin, hydrocortisone, gentamicin, amphotericin B, fluconazole, retinoic acid, transferrin, triiodothyronine, epinephrine, and human recombinant epidermal growth factor (serum-free BEGM) and maintained at 37° C. in a humidified incubator. After expansion in vitro, passage 2 epithelial cells were grown to >90% confluence on a 12-well plate. The medium was changed to Hanks balanced salt solution, and the cells were treated with either calcium ionophore (A23187, 10 uM) or a DMSO-containing control solution for 20 min at 37° C. In some studies, the cytosolic phospholipase A2-α inhibitor Pyr-2^6 was present at 5 uM, added from a stock solution in DMSO. The synthesis of eicosanoids was stopped by the addition of 4 volumes of ice methanol with 0.2% formic acid. […] The studies were performed in duplicate. Samples were processed for derivatization with AMPP and LC/ESI-MSMS as for the serum samples.

Take `CNc1ccc2oc(C[C@H]3O[C@@]4(CC[C@H]3C)O[C@H]([C@H](C)C(=O)c3ccc[nH]3)[C@H](C)C[C@H]4C)nc2c1C(=O)O` [Ca ionophore]: the “11(S)-HETE level” value came to 3.7 pg, the “15(S)-HETE level” value is on record as 7.8 pg, the Arachidonic acid level was 242 pg and the PGD2 level is reported as 4.4 pg. Moreover, the PGE2 level is given as 39 pg, the PGF2α level was 60 pg and the TxB2 level was found to be 1.3 pg.

For the origin of these results see patent US9045421B2, “Reagent and method for detection of carboxylic acids by mass spectrometry” (University of Washington, priority 2010, dated 2015).
